Measurements reported in patent US9434763B2, “Derivatives of pyridinone as inhibitors for tissue transglutaminase” (ZEDIRA GMBH, priority 2012, dated 2016).

Target: T1, His tagged recombinant human tissue transglutaminase (His6-rh-TG2) (Homo sapiens, UniProt P21980)
T1 construct: purchased Zedira T002
T1 sequence (P21980 1-687): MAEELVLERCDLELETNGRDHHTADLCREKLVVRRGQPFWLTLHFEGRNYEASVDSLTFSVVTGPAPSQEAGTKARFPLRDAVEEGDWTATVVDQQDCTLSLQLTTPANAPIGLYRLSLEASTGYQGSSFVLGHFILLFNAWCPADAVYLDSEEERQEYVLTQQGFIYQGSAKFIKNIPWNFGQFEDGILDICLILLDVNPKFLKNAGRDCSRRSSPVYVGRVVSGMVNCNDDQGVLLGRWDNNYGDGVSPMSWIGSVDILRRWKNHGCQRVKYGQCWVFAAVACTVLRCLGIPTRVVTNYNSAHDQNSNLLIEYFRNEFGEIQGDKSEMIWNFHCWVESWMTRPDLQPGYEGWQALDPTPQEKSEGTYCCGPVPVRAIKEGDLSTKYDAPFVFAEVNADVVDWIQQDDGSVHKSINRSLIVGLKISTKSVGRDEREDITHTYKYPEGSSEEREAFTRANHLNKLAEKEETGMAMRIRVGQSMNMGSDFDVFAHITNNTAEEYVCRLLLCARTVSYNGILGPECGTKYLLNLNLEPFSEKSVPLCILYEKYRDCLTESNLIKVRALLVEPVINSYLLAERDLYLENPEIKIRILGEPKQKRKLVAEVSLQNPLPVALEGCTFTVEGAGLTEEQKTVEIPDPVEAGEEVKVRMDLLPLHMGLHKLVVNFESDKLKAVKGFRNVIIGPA
Experiment: Inactivation of human tissue transglutaminase, fluorescence assay with Abz-APE(CAD-DNP)QEA-OH
Assay type: biochemical
Conditions: substrate Abz-APE(CAD-DNP)QEA-OH, 37° C., pH=7.5
Procedure: General Method for Inactivation of Human Tissue Transglutaminase
250 μg lyophilized His tagged recombinant human tissue transglutaminase (His6-rh-TG2, Zedira product T002) are reconstituted by adding 150 μl water (resulting buffer 50 mM NaH2PO4, 150 mM NaCl, pH=8.0).
A 10 mM inhibitor stock solution in DMSO is prepared and is diluted with buffer (50 mM Tris-HCl, 10 mM CaCl2, 5 mM DTT, pH=7.5) each to the twentyfold of the concentration desired in the preparation (but at least 1/50 dilution resulting in a 2% DMSO concentration).
900 μl of an assay-solution consisting of 55.56 mM Tris, 11.11 mM CaCl2, 0.11% PEG8000, 5.56 mM DTT, 5.56 mM glycine methyl ester and 50 μM Abz-APE(CAD-DNP)QEA-OH, (Zedira product A102; patent No.: EP 1781807B1), pH=7.5 are added to a cuvette and heated in a measuring cell of a spectrophotometer to 37° C. 50 μl of the particular inhibitor solution are added to this solution (resulting in a concentration of less than 0.2% DMSO in the mixture).
7 μl of the transglutaminase solution reconstituted above are diluted with 51 μl buffer (50 mM Tris, 100 mM NaCl, 5 mM DTT, pH=7.5). 50 μl of this enzyme solution (10 μg His6-rhTG2) are added to the assay-solution containing the particular inhibitor concentration. It is incubated 5 min at 37° C. before measuring starts (λexc=313 nm and λem=418 nm, t=15 to 30 min).
The evaluation of the resulting enzyme activity is done using the slope of the straight line obtained by the increase in fluorescence.
To determine the non-inhibited enzyme activity, DMSO instead of inhibitor stock solution is used. IC50 values are determined by plotting the resulting enzyme activity against the logarithm of the inhibitor concentration. IC50 is defined as the concentration of inhibitor resulting in 50% of enzyme activity.

Row | IC50 [nM] | Compound
1 | 100 | CCOC(=O)/C=C/CC[C@H](NC(=O)OCc1ccccc1)C(=O)Nc1cccn(CC(=O)NCCc2c(C)cc(C)cc2C)c1=O [A1, (S,E)-Ethyl 6-(benzyloxycarbonylamino)-7-oxo-7-(2-oxo-1-(2-oxo-2-(2,4,6-trimethylphenethylamino)ethyl)-1,2-dihydropyridin-3-ylamino)hept-2-enoate]
2 | 100 | CCOC(=O)/C=C/CC[C@H](NC(=O)OCc1ccccc1)C(=O)Nc1ccc(C)n(CC(=O)NCCC(C)C)c1=O [A2, (S,E)-Ethyl 6-(benzyloxycarbonylamino)-7-(1-(2-(isopentylamino)-2-oxoethyl)-6-methyl-2-oxo-1,2-dihydropyridin-3-ylamino)-7-oxohept-2-enoate]
3 | 96 | CCOC(=O)/C=C/CC[C@H](NC(=O)OCc1ccccc1)C(=O)Nc1cccn(CC(=O)NCCC(C)C)c1=O [A3, (S,E)-Ethyl 6-(benzyloxycarbonylamino)-7-(1-(2-(isopentylamino)-2-oxoethyl)-2-oxo-1,2-dihydropyridin-3-ylamino)-7-oxohept-2-enoate]
4 | 119 | CCOC(=O)/C=C/CC[C@H](NC(C)=O)C(=O)Nc1ccc(C)n(CC(=O)NCCC(C)C)c1=O [A4, (S,E)-Ethyl 6-acetamido-7-(1-(2-(isopentylamino)-2-oxoethyl)-6-methyl-2-oxo-1,2-dihydropyridin-3-ylamino)-7-oxohept-2-enoate]
5 | 130 | CCOC(=O)/C=C/CC[C@H](NC(=O)OCc1ccccc1)C(=O)Nc1ccc(C)n(CC(=O)NC(CC(=O)O)CC(C)C)c1=O (stereo partly drawn) [A5, 3-(2-(3-((S,E)-2-(Benzyloxycarbonylamino)-7-ethoxy-7-oxohept-5-enamido)-6-methyl-2-oxopyridin-1(2H)-yl)acetamido)-5-methylhexanoic acid]
6 | 532 | CC(=O)N[C@@H](CC/C=C/C(=O)OC(C)C)C(=O)Nc1cccn(CC(=O)NCCC(C)C)c1=O [A6, (S,E)-isopropyl 6-acetamido-7-(1-(2-(isopentylamino)-2-oxoethyl)-2-oxo-1,2-dihydropyridin-3-ylamino)-7-oxohept-2-enoate]
7 | 251 | CCOC(=O)/C=C/CC[C@H](NC(=O)c1cccnc1)C(=O)Nc1ccc(C)n(CC(=O)NCCc2ccccc2)c1=O [A8, (S,E)-Ethyl 7-(6-methyl-2-oxo-1-(2-oxo-2-(phenethylamino)ethyl)-1,2-dihydropyridin-3-ylamino)-6-(nicotinamido)-7-oxohept-2-enoate]
8 | 708 | CCOC(=O)/C=C/CC[C@H](NS(=O)(=O)Cc1ccc(Cl)cc1)C(=O)Nc1cccn(CC(=O)NCCC(C)C)c1=O [A9, (S,E)-ethyl 6-((4-chlorophenyl)methylsulfonamido)-7-(1-(2-(isopentylamino)-2-oxoethyl)-2-oxo-1,2-dihydropyridin-3-ylamino)-7-oxohept-2-enoate]
9 | 73 | CCOC(=O)/C=C/CC[C@H](NC(=O)c1ccccc1)C(=O)Nc1cccn(CC(=O)NCCC(C)C)c1=O [A10, (S,E)-Ethyl 6-benzamido-7-(1-(2-(isopentylamino)-2-oxoethyl)-2-oxo-1,2-dihydropyridin-3-ylamino)-7-oxohept-2-enoate]
10 | 104 | CCOC(=O)/C=C/CC[C@H](NC(=O)c1ccoc1)C(=O)Nc1cccn(CC(=O)NCCC(C)C)c1=O [A11, (S,E)-Ethyl 6-(furan-3-carboxamido)-7-(1-(2-(isopentylamino)-2-oxoethyl)-2-oxo-1,2-dihydropyridin-3-ylamino)-7-oxohept-2-enoate]
11 | 84 | CCOC(=O)/C=C/CC[C@H](NC(=O)c1ccsc1)C(=O)Nc1cccn(CC(=O)NCCC(C)C)c1=O [A12, (S,E)-Ethyl 7-(1-(2-(isopentylamino)-2-oxoethyl)-2-oxo-1,2-dihydropyridin-3-ylamino)-7-oxo-6-(thiophene-3-carboxamido)hept-2-enoate]
12 | 83 | CCOC(=O)/C=C/CC[C@H](NS(=O)(=O)c1ccoc1)C(=O)Nc1cccn(CC(=O)NCCC(C)C)c1=O [A13, (S,E)-Ethyl 6-(furan-3-sulfonamido)-7-(1-(2-(isopentylamino)-2-oxoethyl)-2-oxo-1,2-dihydropyridin-3-ylamino)-7-oxohept-2-enoate]
13 | 137 | CCOC(=O)/C=C/CC[C@H](NC(=O)c1ccc(S(N)(=O)=O)cc1)C(=O)Nc1cccn(CC(=O)NCCC(C)C)c1=O [A14, (S,E)-Ethyl 7-(1-(2-(isopentylamino)-2-oxoethyl)-2-oxo-1,2-dihydropyridin-3-ylamino)-7-oxo-6-(4-sulfamoylbenzamido)hept-2-enoate]
14 | 92 | CCOC(=O)/C=C/CC[C@H](NC(=O)c1ncsc1C)C(=O)Nc1cccn(CC(=O)NCCC(C)C)c1=O [A15, (S,E)-Ethyl 7-(1-(2-(isopentylamino)-2-oxoethyl)-2-oxo-1,2-dihydropyridin-3-ylamino)-6-(5-methylthiazole-4-carboxamido)-7-oxohept-2-enoate]
15 | 104 | CCOC(=O)/C=C/CC[C@H](NC(=O)c1cccnc1)C(=O)Nc1cccn(CC(=O)NCCC(C)C)c1=O [A16, (S,E)-Ethyl 7-(1-(2-(isopentylamino)-2-oxoethyl)-2-oxo-1,2-dihydropyridin-3-ylamino)-6-(nicotinamido)-7-oxohept-2-enoate]
16 | 63 | CCOC(=O)/C=C/CC[C@H](NC(=O)c1cc(C(F)(F)F)cc(C(F)(F)F)c1)C(=O)Nc1cccn(CC(=O)NCCC(C)C)c1=O [A17, (S,E)-Ethyl 6-(3,5-bis(trifluoromethyl)benzamido)-7-(1-(2-(isopentylamino)-2-oxoethyl)-2-oxo-1,2-dihydropyridin-3-ylamino)-7-oxohept-2-enoate]
17 | 175 | CCOC(=O)/C=C/CC[C@H](NC(=O)c1ccc(N2CCCCC2)cc1)C(=O)Nc1cccn(CC(=O)NCCC(C)C)c1=O [A18, (S,E)-Ethyl 7-(1-(2-(isopentylamino)-2-oxoethyl)-2-oxo-1,2-dihydropyridin-3-ylamino)-7-oxo-6-(4-(piperidin-1-yl)benzamido)hept-2-enoate]
18 | 202 | CCOC(=O)/C=C/CC[C@H](NC(=O)c1ccc(N2CCN(C)CC2)cc1)C(=O)Nc1cccn(CC(=O)NCCC(C)C)c1=O [A20, (S,E)-Ethyl 7-(1-(2-(isopentylamino)-2-oxoethyl)-2-oxo-1,2-dihydropyridin-3-ylamino)-6-(4-(4-methylpiperazin-1-yl)benzamido)-7-oxohept-2-enoate]
19 | 111 | CCOC(=O)/C=C/CC[C@H](NC(=O)c1ccc2c(c1)OCCN2C)C(=O)Nc1cccn(CC(=O)NCCC(C)C)c1=O [A21, (S,E)-Ethyl 7-(1-(2-(isopentylamino)-2-oxoethyl)-2-oxo-1,2-dihydropyridin-3-ylamino)-6-(4-methyl-3,4-dihydro-2H-benzo[b][1,4]oxazine-7-carboxamido)-7-oxohept-2-enoate]
20 | 133 | CCOC(=O)/C=C/CC[C@H](NS(=O)(=O)c1ccccc1)C(=O)Nc1cccn(CC(=O)NCCC(C)C)c1=O [A22, (S,E)-Ethyl 7-(1-(2-(isopentylamino)-2-oxoethyl)-2-oxo-1,2-dihydropyridin-3-ylamino)-7-oxo-6-(phenylsulfonamido)hept-2-enoate]
21 | 475 | CCOC(=O)/C=C/CC[C@H](NS(=O)(=O)c1ccc(O)c(C(=O)O)c1)C(=O)Nc1cccn(CC(=O)NCCC(C)C)c1=O [A23, (S,E)-5-(N-(7-Ethoxy-1-(1-(2-(isopentylamino)-2-oxoethyl)-2-oxo-1,2-dihydropyridin-3-ylamino)-1,7-dioxohept-5-en-2-yl)sulfamoyl)-2-hydroxybenzoic acid]
